According to patent publication US10294202B2, “Pyrrolidinones as herbicides” (FMC Corporation, priority 2013, dated 2019):
Where “and” joins values, the source holds several entries; their conditions need not be identical. Identical values can stand only once.

How the values were obtained:
Assay in all cases: Test G paddy mixture test (Colby)
[1] = test system: small-flower umbrella sedge (CYPDI); assay type: in vivo, Cyperus difformis; conditions: applied alone, 14 d; for CYPDI Obsd.: scale 0-100
Protocol: (§1) Seeds of small-flower umbrella […], Cyperus difformis) and […], Heteranthera limosa) were sown on the soil surface in two separate quadrants of 11-cm (4-inch) tubs filled with steam pasteurized Tama soil. Simultaneously, plantings of […], Echinochloa crus-galli) and transplanted japonica rice (ORYSA, Oryza sativa) were established in separate “plug” flats. […] Herbicide application timing was targeted at the 2.0 to 2.5 leaf stage and the plants were treated with test chemicals formulated in a non-phytotoxic solvent. Treated plants and controls were maintained in a greenhouse for 14 d, after which time all species were compared to controls and visually evaluated. Plant response ratings are summarized in Tables G1 through G12, and are based on a scale of 0 to 100 where 0 is no effect and 100 is complete control. A dash (-) response means no test result. Colby's Equation was used to determine the herbicidal effects expected from the mixtures. Colby's Equation (Colby, S. R. “Calculating Synergistic and Antagonistic Responses of Herbicide Combinations,” Weeds, 15(1), pp 20-22 (1967)) calculates the expected additive effect of herbicidal mixtures and for two active ingredients is of the form: Pa+b=Pa+Pb-(PaPb/100) where • Pa+b is the percentage effect of the mixture expected from additive contribution of the individual components: • Pa is the observed percentage effect of the first active ingredient at the same use rate as in the mixture, and • Pb is the observed percentage effect of the second active ingredient at the same use rate as in the mixture. In the following Tables, rates are shown in grams of active ingredient per […]); “Obsd.” is the observed effect. “Exp.” is the expected effect calculated from Colby's Equation.

ducksalad (HETLI) = assay type: in vivo, Heteranthera limosa; conditions: applied alone, 14 d; for HETLI Obsd.: scale 0-100
Protocol: as §1

[2] = test system: transplanted japonica rice (ORYSA); assay type: in vivo, Oryza sativa; conditions: applied alone, 14 d; for ORYSA Obsd.: scale 0-100
Protocol: as §1

barnyardgrass (ECHCG) = assay type: in vivo, Echinochloa crus-galli; conditions: applied alone, 14 d; for ECHCG Obsd.: scale 0-100
Protocol: as §1

SMILES: COc1nc(OC)nc(C(=O)c2cccc(F)c2N(C)S(=O)(=O)C(F)F)n1 [Triafamone, N-[2-[(4,6-dimethoxy-1,3,5-triazin-2-yl)carbonyl]-6-fluorophenyl]-1,1-difluoro-N-methylmethanesulfonamide]
- CYPDI Obsd. ([1]; 20 g a.i./ha): 0
- HETLI Obsd. (ducksalad (HETLI); 20 g a.i./ha): 0
- ORYSA Obsd. ([2]; 20 g a.i./ha): 0
- ECHCG Obsd. (barnyardgrass (ECHCG); 20 g a.i./ha): 90 and 85

SMILES: CN(C(=O)COc1nc2ccccc2s1)c1ccccc1 [Mefenecet]
- CYPDI Obsd. ([1]; 300 g a.i./ha): 100
- HETLI Obsd. (ducksalad (HETLI); 300 g a.i./ha): 100

SMILES: CS(=O)(=O)c1ccc(C(=O)C2C(=O)CCCC2=O)c(Cl)c1COCC1CCCO1 (centres unmarked) [Tefuryltrione]
- CYPDI Obsd. ([1]; 100 g a.i./ha): 90
- CYPDI Obsd. plant response rating (scale 0 to 100) ([1]; 100 g a.i./ha, flooded): 100
- HETLI Obsd. (ducksalad (HETLI); 100 g a.i./ha): 90
- HETLI Obsd. plant response rating (scale 0 to 100) (ducksalad (HETLI); 100 g a.i./ha, flooded): 100
- ORYSA Obsd. ([2]; 100 g a.i./ha): 0
- ORYSA Obsd. plant response rating (scale 0 to 100) ([2]; 100 g a.i./ha, flooded): 0
- ECHCG Obsd. (barnyardgrass (ECHCG); 100 g a.i./ha): 0
- ECHCG Obsd. plant response rating (scale 0 to 100) (barnyardgrass (ECHCG); 100 g a.i./ha, flooded): 40
